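Tested at 5 concentrations; 48 h exposure; 96-well plates; endpoints linearly interpolated, else capped at highest concentration. Here, GI50 denotes the concentration required for 50% inhibition of growth.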 Active and inactive are the calls of the source. Cut-off read from the data, not from the text of the source: active = GI50 up to about 1.1 µM and inactive = higher.
How the values were obtained:
Assay in all cases: NCI-60 cell line screen, 48 h
NCI-H23 = system: NCI-H23
K562 = system: K562
OVCAR-8 = system: OVCAR-8
HT-29 = system: HT-29
SF-295 = system: SF-295
ACHN = system: ACHN
LOX IMVI = system: LOX IMVI
HCT-116 = system: HCT-116
UO-31 = system: UO-31
SR = system: SR
NCI-H226 = system: NCI-H226
DU-145 = system: DU-145
KM12 = system: KM12
MDA-MB-435 = system: MDA-MB-435
Malme-3M = system: Malme-3M
NCI-H460 = system: NCI-H460
UACC-257 = system: UACC-257
SK-OV-3 = system: SK-OV-3
COLO 205 = system: COLO 205
SF-539 = system: SF-539

SMILES	GI50 (NCI-H23)	GI50 (K562)	GI50 (OVCAR-8)	GI50 (HT-29)	GI50 (SF-295)	GI50 (ACHN)	GI50 (LOX IMVI)	GI50 (HCT-116)	GI50 (UO-31)	GI50 (SR)	GI50 (NCI-H226)	GI50 (DU-145)	GI50 (KM12)	GI50 (MDA-MB-435)	GI50 (Malme-3M)	GI50 (NCI-H460)	GI50 (UACC-257)	GI50 (SK-OV-3)	GI50 (COLO 205)	GI50 (SF-539)
CC(CO)(CO)Nc1ncnc2ccccc12	> 100 µM (inactive)	> 100 µM (inactive)	> 100 µM (inactive)	> 100 µM (inactive)	> 100 µM (inactive)	> 100 µM (inactive)	> 100 µM (inactive)	> 100 µM (inactive)	> 100 µM (inactive)	66.1 µM (inactive)	> 100 µM (inactive)	> 100 µM (inactive)	> 100 µM (inactive)	> 100 µM (inactive)	> 100 µM (inactive)	> 100 µM (inactive)	> 100 µM (inactive)	–	–	–
Cc1ccc(SC[C@@]2(C(F)F)NC(=O)NC2=O)cc1	> 100 µM (inactive)	> 100 µM (inactive)	> 100 µM (inactive)	> 100 µM (inactive)	> 100 µM (inactive)	> 100 µM (inactive)	> 100 µM (inactive)	> 100 µM (inactive)	> 100 µM (inactive)	> 100 µM (inactive)	> 100 µM (inactive)	> 100 µM (inactive)	> 100 µM (inactive)	> 100 µM (inactive)	> 100 µM (inactive)	> 100 µM (inactive)	> 100 µM (inactive)	> 100 µM (inactive)	> 100 µM (inactive)	–
O=C1OC(C2Cc3ccc4ccccc4c3C2=O)c2ccccc21 (centres undefined)	–	57.7 µM (inactive)	35.6 µM (inactive)	–	32.4 µM (inactive)	53.1 µM (inactive)	38 µM (inactive)	41.4 µM (inactive)	71.3 µM (inactive)	35.2 µM (inactive)	19.5 µM (inactive)	> 100 µM (inactive)	28.3 µM (inactive)	51.9 µM (inactive)	50.1 µM (inactive)	49.7 µM (inactive)	70.8 µM (inactive)	–	> 100 µM (inactive)	21.6 µM (inactive)
COc1cc(C2SCC(=O)N2c2cc(Cl)c(Cl)cc2Cl)cc(OC)c1OC (centres undefined)	50.5 µM (inactive)	42 µM (inactive)	66.5 µM (inactive)	76.7 µM (inactive)	49.8 µM (inactive)	42.3 µM (inactive)	33.7 µM (inactive)	38.3 µM (inactive)	34.7 µM (inactive)	26.4 µM (inactive)	63.1 µM (inactive)	41.3 µM (inactive)	31.3 µM (inactive)	30.5 µM (inactive)	–	36.3 µM (inactive)	36.8 µM (inactive)	40.7 µM (inactive)	39.5 µM (inactive)	43.1 µM (inactive)
CC1(C)CC(=O)c2c(nc3c(ccc4ccccc43)c2-c2ccc(NC(=O)CCCCCCCCC(=O)Nc3ccc(-c4c5c(nc6c4ccc4ccccc46)CC(C)(C)CC5=O)cc3)cc2)C1	–	> 100 µM (inactive)	> 100 µM (inactive)	> 100 µM (inactive)	> 100 µM (inactive)	> 100 µM (inactive)	> 100 µM (inactive)	> 100 µM (inactive)	> 100 µM (inactive)	> 100 µM (inactive)	> 100 µM (inactive)	> 100 µM (inactive)	> 100 µM (inactive)	> 100 µM (inactive)	–	> 100 µM (inactive)	> 100 µM (inactive)	> 100 µM (inactive)	> 100 µM (inactive)	> 100 µM (inactive)
O=C1OC(c2ccccc2)=N/C1=C\c1ccc([N+](=O)[O-])cc1	24.5 µM (inactive)	> 100 µM (inactive)	11.9 µM (inactive)	> 100 µM (inactive)	32.7 µM (inactive)	14.3 µM (inactive)	26.4 µM (inactive)	98.6 µM (inactive)	50.7 µM (inactive)	2.35 µM (inactive)	3.96 µM (inactive)	47.4 µM (inactive)	54.8 µM (inactive)	> 100 µM (inactive)	–	> 100 µM (inactive)	> 100 µM (inactive)	34.7 µM (inactive)	> 100 µM (inactive)	9.16 µM (inactive)
CCOC(=O)c1ccc2c(=O)n3c(C(=O)OCC)ccc3c(=O)n12	> 100 µM (inactive)	> 100 µM (inactive)	> 100 µM (inactive)	> 100 µM (inactive)	> 100 µM (inactive)	> 100 µM (inactive)	> 100 µM (inactive)	> 100 µM (inactive)	> 100 µM (inactive)	> 100 µM (inactive)	> 100 µM (inactive)	> 100 µM (inactive)	> 100 µM (inactive)	> 100 µM (inactive)	> 100 µM (inactive)	> 100 µM (inactive)	> 100 µM (inactive)	68.2 µM (inactive)	> 100 µM (inactive)	–
COc1ccc(C2OC[C@H]3O[C@@H](OCc4ccccc4)[C@H](O)[C@@H](O)[C@@H]3O2)cc1 (some centres undefined)	> 100 µM (inactive)	> 100 µM (inactive)	> 100 µM (inactive)	> 100 µM (inactive)	> 100 µM (inactive)	> 100 µM (inactive)	> 100 µM (inactive)	> 100 µM (inactive)	> 100 µM (inactive)	67.9 µM (inactive)	23.2 µM (inactive)	> 100 µM (inactive)	–	> 100 µM (inactive)	–	> 100 µM (inactive)	> 100 µM (inactive)	> 100 µM (inactive)	> 100 µM (inactive)	> 100 µM (inactive)
CCOP(=O)(C/C=C/Cn1ncc(=O)[nH]c1=O)OCC	–	> 100 µM (inactive)	> 100 µM (inactive)	> 100 µM (inactive)	–	63.2 µM (inactive)	> 100 µM (inactive)	–	> 100 µM (inactive)	> 10 µM (inactive)	> 100 µM (inactive)	> 100 µM (inactive)	> 100 µM (inactive)	> 100 µM (inactive)	> 100 µM (inactive)	> 100 µM (inactive)	> 100 µM (inactive)	–	> 100 µM (inactive)	> 100 µM (inactive)
OCc1cc2c(ccc3sc4ccc5sc6ccc7ncccc7c6c5c4c32)s1	–	22.4 µM (inactive)	12.1 µM (inactive)	15.5 µM (inactive)	12.5 µM (inactive)	31.6 µM (inactive)	12.6 µM (inactive)	8.47 µM (inactive)	2.11 µM (inactive)	10.5 µM (inactive)	30.1 µM (inactive)	17.1 µM (inactive)	6.47 µM (inactive)	24.3 µM (inactive)	–	7.08 µM (inactive)	13.6 µM (inactive)	18.4 µM (inactive)	2.72 µM (inactive)	14.4 µM (inactive)
CC(=O)Nc1ccc2[nH]c(C(=O)N3CC(CCl)c4c3cc([N+](=O)[O-])c3ccccc43)cc2c1 (centres undefined)	8.57 µM (inactive)	0.601 µM (active)	3.1 µM (inactive)	29.9 µM (inactive)	7.33 µM (inactive)	5.57 µM (inactive)	9.2 µM (inactive)	6.41 µM (inactive)	0.805 µM (active)	0.349 µM (active)	9.38 µM (inactive)	2.96 µM (inactive)	1.73 µM (inactive)	14.7 µM (inactive)	–	12.9 µM (inactive)	> 100 µM (inactive)	0.791 µM (active)	4.98 µM (inactive)	–
CO/C(=N\N=C(/C)C(F)(F)F)c1ccncc1	> 100 µM (inactive)	> 100 µM (inactive)	> 100 µM (inactive)	> 100 µM (inactive)	–	–	–	> 100 µM (inactive)	> 100 µM (inactive)	> 100 µM (inactive)	> 100 µM (inactive)	> 100 µM (inactive)	> 100 µM (inactive)	> 100 µM (inactive)	> 100 µM (inactive)	> 100 µM (inactive)	–	> 100 µM (inactive)	> 100 µM (inactive)	–
O=Cc1ccc(-c2cccc([N+](=O)[O-])c2)s1	> 100 µM (inactive)	72.1 µM (inactive)	80.9 µM (inactive)	> 100 µM (inactive)	> 100 µM (inactive)	> 100 µM (inactive)	> 100 µM (inactive)	> 100 µM (inactive)	65.8 µM (inactive)	56.5 µM (inactive)	67.5 µM (inactive)	61 µM (inactive)	> 100 µM (inactive)	> 100 µM (inactive)	–	> 100 µM (inactive)	> 100 µM (inactive)	> 100 µM (inactive)	> 100 µM (inactive)	> 100 µM (inactive)
Cc1sc2nc3n(c(=O)c2c1C)N=CN(c1ccc(F)cc1)C3	> 100 µM (inactive)	> 100 µM (inactive)	65.6 µM (inactive)	> 100 µM (inactive)	72.9 µM (inactive)	29 µM (inactive)	> 100 µM (inactive)	23.8 µM (inactive)	> 100 µM (inactive)	> 100 µM (inactive)	> 100 µM (inactive)	> 100 µM (inactive)	> 100 µM (inactive)	> 100 µM (inactive)	25 µM (inactive)	44.5 µM (inactive)	> 100 µM (inactive)	52 µM (inactive)	> 100 µM (inactive)	–
C=C1C[C@@H]2CC[C@@]34CC5O[C@H]6C(O[C@H]7CC[C@H](CC(=O)O[C@@H]8[C@@H](C)[C@@H]9O[C@@H]%10C[C@]%11(C[C@@H]%12O[C@]%13(C[C@H](C)[C@@H]%14O[C@@H]%15CC(C(O)CO)O[C@@H]%15C[C@@H]%14O%13)C[C@H](C)[C@@H]%12O%11)O[C@@H]%10C[C@@H]9O[C@H]8CC8O[C@@H](CC[C@@H]1O2)C[C@@H](C)C8(O)CO)O[C@@H]7[C@@H]6O3)[C@H]5O4 (some centres undefined)	> 0.473 µM (active)	> 0.933 µM (active)	> 1 µM (active)	–	> 0.796 µM (active)	> 1 µM (active)	0.48 µM (active)	0.627 µM (active)	> 1 µM (active)	> 0.625 µM (active)	0.986 µM (active)	> 0.916 µM (active)	> 0.726 µM (active)	0.294 µM (active)	0.394 µM (active)	0.53 µM (active)	> 1 µM (active)	> 1 µM (active)	> 0.65 µM (active)	–

— ChEMBL document CHEMBL1201862, “PubChem BioAssay data set” (2004)
